Measurements reported in patent US20190297889A1, “USE OF A DIFLUORO-(2-HYDROXYPROPYL)PYRIDINE COMPOUND AS A FUNGICIDE FOR CONTROL OF PHYTOPATHOGENIC FUNGI OF RICE” (Dow AgroSsciences LLC, priority 2016, published 2019).
Where two headings read alike, the source gives them in different places.

Assays:
Pyricularia oryzae = format: in vivo; settings: 2 sprays, rice field
Cochliobolus miyabeanus = test: Field assessment of Cochliobolus miyabeanus (COCHMI, brown spot) in rice; settings: for Percent Control (AUDPC), Panicle: panicles; for Percent Control (AUDPC), Plot: whole plot foliage
Procedure: The applications were made as early curative treatments, with the first application coming at the vegetative stage (50 to 70 DAP; max tillering to booting). The treatments were part of an experimental trial designed as a randomized complete block with four replications and a plot of approximately 5×2 m.
Disease assessments were made every seven days until three weeks after the second application. Disease severity was recorded as a percentage of visual diseased foliage on whole plot and as a percentage of visual infection on the rice panicles. Area under the disease progress curve (AUDPC) was calculated for each plot using the sets of recorded severity data. Relative AUDPC (% control based on AUDPC) was calculated as percent of the nontreated control. Also included in the study is the effect on efficacy of the addition of two adjuvants at varied rates: Agnique BP-420 (50% w/w) at rates from 0.05% to 0.3%; and Agnique BP-420 (50% w/w) plus MSO (methylated seed oil) at rates from 0.25% to 0.75%.

[1] = test system: Gaeumannomyces graminis var. graminis; test: Field assessment of Gaeumannomyces graminis var. graminis (GAEUGR) in rice; format: in vivo
Description: The applications were made as preventative treatments, with no infection at the time of application. The first symptoms of […] were observed after three applications.

Rhizoctonia solani = test: Field assessment of Rhizoctonia solani (RHIZSO, sheath blight) in rice; format: in vivo; settings: 2 sprays
Procedure: The experimental plots were inoculated with Rhizoctonia solani_2 days after the first application at growth stage BBCH 59 of rice.
Disease infection percentage was calculated as (lesion lengths)/(total sheath lengths)×100% on 6 plants per plot randomly. Sheath blight infection was assessed three times, 7 days after application A (DAAA) plus 7 and 14 DAAB. The disease infection was recorded following EPPO PP1/26 guideline prescriptions.

[2] = 100 g ai/ha, Adjuvant A (Agnique BP-420) 0.2% v/v
[3] = 150 g ai/ha, Adjuvant A (Agnique BP-420) 0.3% v/v
[4] = 125 g ai/ha, commercial standard

N#Cc1ccc(Oc2ccc(C(F)(F)C(O)(Cn3ncnc3S)c3ccc(F)cc3F)nc2)cc1 (stereo not drawn) [Compound I, 4-((6-(2-(2,4-difluorophenyl)-1,1-difluoro-2-hydroxy-3-(5-mercapto-1H-1,2,4-triazol-1-yl)propyl)pyridin-3-yl)oxy)benzonitrile]
A (76-100): Disease (% Control) PYRIOR, based on AUDPC (Pyricularia oryzae; 150 g ai/ha) | Disease (% Control) PYRIOR, based on AUDPC (Pyricularia oryzae; 200 g ai/ha) | % Control (AUDPC of visual infection on the plant) (Cochliobolus miyabeanus; [3]) | % Control (AUDPC of visual infection on the plant) ([1]; 200 g ai/ha, Adjuvant A (Agnique BP-420) 0.4% v/v)
D (1-25): Disease (% Control) RHIZSO, based on AUDPC (Rhizoctonia solani; 50 g ai/ha)
C (26-50): Disease (% Control) PYRIOR, based on AUDPC (Pyricularia oryzae; 50 g ai/ha) | Percent Control (AUDPC), Panicle (Cochliobolus miyabeanus; 50 g ai/ha, […]) | Percent Control (AUDPC), Plot (Cochliobolus miyabeanus; 50 g ai/ha, […]) | % Control (AUDPC of visual infection on the plant) (Cochliobolus miyabeanus; 50 g ai/ha, adjuvant None) | Percent Control (AUDPC), Panicle (Cochliobolus miyabeanus; 75 g ai/ha, […]) | Percent Control (AUDPC), Plot (Cochliobolus miyabeanus; 75 g ai/ha, […]) | Percent Control (AUDPC), Panicle (Cochliobolus miyabeanus; 100 g ai/ha, […]) | Percent Control (AUDPC), Plot (Cochliobolus miyabeanus; 100 g ai/ha, […]) | Percent Control (AUDPC), Plot (Cochliobolus miyabeanus; 125 g ai/ha, […]) | % Control (AUDPC of visual infection on the plant) ([1]; 100 g ai/ha, adjuvant None) | Disease (% Control) RHIZSO, based on AUDPC (Rhizoctonia solani; 100 g ai/ha) | Disease (% Control) RHIZSO, based on AUDPC (Rhizoctonia solani; 150 g ai/ha)
B (51-75): Disease (% Control) PYRIOR, based on AUDPC (Pyricularia oryzae; 100 g ai/ha) | % Control (AUDPC of visual infection on the plant) (Cochliobolus miyabeanus; 50 g ai/ha, Adjuvant A (Agnique BP-420) 0.05% v/v) | % Control (AUDPC of visual infection on the plant) (Cochliobolus miyabeanus; 50 g ai/ha, Adjuvant A (Agnique BP-420) 0.1% v/v) | % Control (AUDPC of visual infection on the plant) (Cochliobolus miyabeanus; 50 g ai/ha, Adjuvant A (Agnique BP-420) 0.15% v/v) | % Control (AUDPC of visual infection on the plant) (Cochliobolus miyabeanus; 50 g ai/ha, Adjuvant B (Agnique BP-420 + MSO) 0.25% v/v) | % Control (AUDPC of visual infection on the plant) (Cochliobolus miyabeanus; 50 g ai/ha, Adjuvant B (Agnique BP-420 + MSO) 0.5% v/v) | % Control (AUDPC of visual infection on the plant) (Cochliobolus miyabeanus; 50 g ai/ha, Adjuvant B (Agnique BP-420 + MSO) 0.75% v/v) | % Control (AUDPC of visual infection on the plant) (Cochliobolus miyabeanus; [2]) | Percent Control (AUDPC), Panicle (Cochliobolus miyabeanus; 125 g ai/ha, […]) | Percent Control (AUDPC), Panicle (Cochliobolus miyabeanus; 150 g ai/ha, […]) | Percent Control (AUDPC), Plot (Cochliobolus miyabeanus; 150 g ai/ha, […]) | % Control (AUDPC of visual infection on the plant) ([1]; 100 g ai/ha, Adjuvant A (Agnique BP-420) 0.1% v/v) | % Control (AUDPC of visual infection on the plant) [1, 2] | % Control (AUDPC of visual infection on the plant) ([1]; 100 g ai/ha, Adjuvant A (Agnique BP-420) 0.3% v/v) | % Control (AUDPC of visual infection on the plant) ([1]; 100 g ai/ha, Adjuvant B (Agnique BP-420 + MSO) 0.5% v/v) | % Control (AUDPC of visual infection on the plant) ([1]; 100 g ai/ha, Adjuvant B (Agnique BP-420 + MSO) 1.0% v/v) | % Control (AUDPC of visual infection on the plant) ([1]; 100 g ai/ha, Adjuvant B (Agnique BP-420 + MSO) 1.5% v/v) | % Control (AUDPC of visual infection on the plant) [1, 3] | Disease (% Control) RHIZSO, based on AUDPC (Rhizoctonia solani; 200 g ai/ha)

N#CC(CCc1ccc(Cl)cc1)(Cn1cncn1)c1ccccc1 (stereo not drawn) [Fenbuconazole, reference compound]
B (51-75): % Control (AUDPC of visual infection on the plant) ([1]; 144 g ai/ha, adjuvant Inex-A 0.15% v/v)

CCCC1COC(Cn2cncn2)(c2ccc(Cl)cc2Cl)O1 (stereo not drawn) [Propiconazole, reference compound]
B (51-75): Percent Control (AUDPC), Panicle (Cochliobolus miyabeanus; [4]) | Percent Control (AUDPC), Plot (Cochliobolus miyabeanus; [4])
